Measurements as given in ChEMBL document CHEMBL4351023, “Novel N-benzylpiperidine carboxamide derivatives as potential cholinesterase inhibitors for the treatment of Alzheimer's disease” (Eur J Med Chem, 2019).

Legend:
[1] = target: Acetylcholinesterase (Electrophorus electricus, UniProt O42275); test: Inhibition of Electrophorus electricus AChE using acetylthiocholine iodide as substrate by Ellman's method
[2] = target: Cholinesterase (Equus caballus, UniProt P81908); test: Inhibition of BuChE in equine serum using Butyrylthiocholine iodide as substrate by Ellman's method; type: cell-free
[3] = test system: SH-SY5Y; test: cells; type: ADME, cell-based; settings: Homo sapiens, 72 h
[4] = Solubility of compound in <1 % DMSO; type: physicochemical
[5] = Solubility of compound in water at 10 mM; type: physicochemical; settings: buffer, 10000 µM

Acetylcholinesterase, sequence (O42275 whole entry): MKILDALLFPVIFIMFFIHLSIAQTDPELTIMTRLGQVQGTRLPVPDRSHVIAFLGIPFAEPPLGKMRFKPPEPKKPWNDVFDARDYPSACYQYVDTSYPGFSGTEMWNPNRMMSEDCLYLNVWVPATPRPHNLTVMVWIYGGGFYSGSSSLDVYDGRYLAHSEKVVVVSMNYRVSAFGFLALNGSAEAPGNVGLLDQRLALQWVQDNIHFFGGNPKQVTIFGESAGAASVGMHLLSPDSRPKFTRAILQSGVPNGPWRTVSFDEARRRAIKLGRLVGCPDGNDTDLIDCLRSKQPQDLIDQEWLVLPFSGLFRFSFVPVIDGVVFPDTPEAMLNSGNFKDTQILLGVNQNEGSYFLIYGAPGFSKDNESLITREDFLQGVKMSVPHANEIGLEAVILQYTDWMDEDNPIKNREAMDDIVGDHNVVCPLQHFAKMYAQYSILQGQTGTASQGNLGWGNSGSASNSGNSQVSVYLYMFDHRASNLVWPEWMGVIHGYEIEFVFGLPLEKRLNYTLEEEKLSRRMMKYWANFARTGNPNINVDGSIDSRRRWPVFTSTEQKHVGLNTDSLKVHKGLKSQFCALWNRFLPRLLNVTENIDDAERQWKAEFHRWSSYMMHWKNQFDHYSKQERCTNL
Cholinesterase, sequence (P81908 whole entry): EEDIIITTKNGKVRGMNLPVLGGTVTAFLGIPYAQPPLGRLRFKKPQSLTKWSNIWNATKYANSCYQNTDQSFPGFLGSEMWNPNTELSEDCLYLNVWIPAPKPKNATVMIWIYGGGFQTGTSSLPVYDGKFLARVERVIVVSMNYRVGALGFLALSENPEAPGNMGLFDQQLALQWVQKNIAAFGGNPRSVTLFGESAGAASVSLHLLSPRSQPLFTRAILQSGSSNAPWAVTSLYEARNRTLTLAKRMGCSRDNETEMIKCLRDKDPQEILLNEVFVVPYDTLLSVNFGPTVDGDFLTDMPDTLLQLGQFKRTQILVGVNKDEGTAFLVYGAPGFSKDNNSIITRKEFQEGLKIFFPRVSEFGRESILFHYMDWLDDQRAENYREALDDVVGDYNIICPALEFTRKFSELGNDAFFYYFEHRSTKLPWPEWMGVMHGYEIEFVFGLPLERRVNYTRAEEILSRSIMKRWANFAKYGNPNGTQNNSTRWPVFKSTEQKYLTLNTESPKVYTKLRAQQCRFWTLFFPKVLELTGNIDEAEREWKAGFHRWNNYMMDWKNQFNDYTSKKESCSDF

Compound O=C(Nc1nccs1)C1CCN(Cc2ccccc2)CC1 has an IC50 [1] of 51.1 µM, an IC50 [2] of over 100 µM and an IC50 [3] of 76.6 µM. The solubility [4] was “Soluble” and the solubility [5] was “Insoluble”.
O=C(NCCc1c[nH]cn1)C1CCN(Cc2ccccc2)CC1 showed an IC50 [1] of over 100 µM, an IC50 [2] of over 100 µM and an IC50 [3] of over 100 µM. The solubility [4] was “Soluble” and the solubility [5] was “Insoluble”.
O=C(NCc1ccncc1)C1CCN(Cc2ccccc2)CC1 gave an IC50 [1] of 58.2 µM, an IC50 [2] of over 100 µM and an IC50 [3] of 3.37 µM. For the same compound, the solubility [4] was “Soluble” and the solubility [5] was “Insoluble”.
For COc1cc(CCNC(=O)C2CCN(Cc3ccccc3)CC2)cc(OC)c1OC, the IC50 [1] was over 100 µM, the IC50 [2] was over 100 µM and the IC50 [3] was over 100 µM. The solubility [4] was “Soluble” and the solubility [5] was “Insoluble”.
With COc1cc2c(cc1OC)C(=O)C(CC1CCN(Cc3ccccc3)CC1)C2 (stereo not given) [DONEPEZIL] the IC50 [3] was 95.1 µM.
In the case of O=C(NCCN1CCOCC1)C1CCN(Cc2ccccc2)CC1, the IC50 [1] is reported as over 100 µM, the IC50 [2] is reported as over 100 µM and the IC50 [3] is reported as 73.4 µM. For the same compound, the solubility [4] was “Soluble” and the solubility [5] was “Insoluble”.
COc1ccccc1CNC(=O)C1CCN(Cc2ccccc2)CC1 gave an IC50 [1] of 44.4 µM, an IC50 [2] of over 100 µM and an IC50 [3] of 50.9 µM. For the same compound, the solubility [4] was “Soluble” and the solubility [5] was “Insoluble”.
For O=C(NCc1ccccn1)C1CCN(Cc2ccccc2)CC1, the IC50 [1] was 30.9 µM, the IC50 [2] was over 100 µM and the IC50 [3] was over 100 µM. The solubility [4] was “Soluble” and the solubility [5] was “Insoluble”.
In the case of COc1cc2c(cc1OC)-c1nc(NC(=O)C3CCN(Cc4ccccc4)CC3)sc1C2, the IC50 [2] is reported as over 100 µM, the IC50 [3] is reported as 31.3 µM and the solubility [4] is reported as “Soluble”. The solubility [5] was “Insoluble”.
Compound O=C(NCc1cccnc1)C1CCN(Cc2ccccc2)CC1 has an IC50 [1] of 58.9 µM, an IC50 [2] of over 100 µM and an IC50 [3] of over 100 µM. The solubility [4] was “Soluble” and the solubility [5] was “Insoluble”.
In the case of Cc1c(NC(=O)C2CCN(Cc3ccccc3)CC2)c(=O)n(-c2ccccc2)n1C, the IC50 [1] is reported as 5.94 µM, the IC50 [2] is reported as over 100 µM and the IC50 [3] is reported as over 100 µM. For the same compound, the solubility [4] was “Soluble” and the solubility [5] was “Insoluble”.
For O=C(NCCc1c[nH]c2ccccc12)C1CCN(Cc2ccccc2)CC1, the IC50 [1] was 25.6 µM, the IC50 [2] was over 100 µM and the IC50 [3] was 40.5 µM. For the same compound, the solubility [4] was “Soluble” and the solubility [5] was “Insoluble”.
O=C(NCCN1CCCCC1)C1CCN(Cc2ccccc2)CC1 gave an IC50 [1] of 82.1 µM, an IC50 [2] of over 100 µM and an IC50 [3] of over 100 µM. For the same compound, the solubility [4] was “Soluble” and the solubility [5] was “Insoluble”.
O=C(NC1CCCc2ccccc21)C1CCN(Cc2ccccc2)CC1 (stereo not given) showed an IC50 [1] of over 100 µM, an IC50 [2] of over 100 µM and an IC50 [3] of 99.3 µM. The solubility [4] was “Soluble” and the solubility [5] was “Insoluble”.
For O=C(NCc1ccco1)C1CCN(Cc2ccccc2)CC1, the IC50 [1] was over 100 µM, the IC50 [2] was over 100 µM and the IC50 [3] was over 100 µM. For the same compound, the solubility [4] was “Soluble” and the solubility [5] was “Insoluble”.
With O=C(NCCNc1cccc2ccccc12)C1CCN(Cc2ccccc2)CC1 the IC50 [1] was 14 µM, the IC50 [2] was over 100 µM and the IC50 [3] was 13.6 µM. The solubility [4] was “Soluble” and the solubility [5] was “Insoluble”.
